{"source": "patent US10526580B2", "about": "“Differentiated cell population of endothelial cells derived from human pluripotent stem cells, composition, system, kit and uses thereof” (BIOCANT-ASSOCIAÇÃO DE TRANSFERÊNCIA DE TECNOLOGIA, priority 2012, dated 2020)", "key": {"[1]": {"test_system": "HUVECs and lymphatic EC tube formation", "conditions": "1 μM, in vitro; cited from earlier work"}, "[2]": {"test_system": "mouse aortic endothelial cells (mAEC)", "assay": "Gene expression in mouse aortic endothelial cells after 7-Cyclo", "assay_type": "cell-based", "protocol": "To further validate the effects of 7-Cyclo at the embryonic vasculature, mouse embryonic ECs were incubated at day 12.5 (mAEC E12.5) and postnatal day 1 (p1) with 7-Cyclo (1 μM) for 24 h. […] In contrast, 7-Cyclo has no effect in p1 ECs. The degree of action of 7-Cyclo in mAEC E12.5 is similar to the one identified in hESC-derived ECs (FIG. 5C).\nTotal RNA from experimental groups was isolated using a protocol with TRIzol (Invitrogen) and RNeasy Minikit (Qiagen, Valencia). cDNA was prepared from 1 μg total RNA using Taqman Reverse transcription reagents (Applied Biosystems, CA). Quantitative PCR (qPCR) was performed using Power SYBR Green PCR Master Mix and the detection using an ABI PRISM 7500 Fast System (Applied Biosystems). Quantification of target genes was performed relative to the reference GAPDH gene: relative expression=2^[−(Ctsample^−CtGADPH^)]. The mean minimal cycle threshold values (Ct) were calculated from 4 reactions. In some cases, gene expression in each experimental group was normalized to the relative gene expression found in HUVECs, HUAECs or undifferentiated hESCs. Primer sequences are published in Table 7 of expanded materials and methods."}, "[3]": {"test_system": "hESC-derived ECs versus ACL cells", "assay": "High-throughput screening of LOPAC library, PrestoBlue cell viability, hESC-derived ECs versus ACL cells", "assay_type": "cell-based, human", "conditions": "LOPAC screen, 4.5 μM, 4 days of incubation, PrestoBlue assay", "outline": "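HUAECs and hESC-derived ECs in EGM-2 and ACL cells in DMEM/10% FBS were grown to near confluence, then exposed for 4 days to single-dose compound at 4.5 μM (0.25% DMSO). Viability was read by PrestoBlue (10%, 3 h, 37 °C) as absorbance at 560-590 nm. Hits were retested at eight concentrations for dose-response.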"}, "Xenopus embryos": {"test_system": "Xenopus embryos", "conditions": "20 μM; cited from earlier work"}, "hESC-derived ECs": {"test_system": "hESC-derived ECs", "assay": "7-Cyclo in PDMS microfluidic system, static or flow (morphology, qRT-PCR, ELISA)", "assay_type": "cell-based, human", "protocol": "For the 7-cyclo studies the flow experiments were carried out in a microfluidic system developed by us. The microfluidic device was obtained using a cylindrical mold of 20 Gauge. Polydimethylsiloxane (PDMS) (Sylgard 184 Silicone elastomere base) was mixed at a 10:1 ratio (w/w) with curing agent (Sylgard 184 Silicon Elastomer Curing Agent) and the solution was poured onto a mold (20 gauge needle laid on a plastic dish) and cured at 80° C. for about 3 h. The microchannel was cut to 0.5 cm length (900 μm inner diameter) and treated with Plasma Clean (Electronic Diener Femto Plasma Surface Technology version 5) for 2 min with argon gas (2 mBar) before immersing it in a solution of 0.1% gelatin. HESC-derived ECs (20×10^6 cells/mL) or HUAECs were seeded on PDMS microchannels (3.18 μL cell suspension per channel) devices and grown until confluence. Using a programmed IBIDI pump with positive pressure, the cell monolayer was perfused with EGM-2 medium for 7 days; shear stress of 20 dyne/cm2 (. After 7 days the flow was stopped, the cells imaged, and then stained or collected for posterior gene analysis. Medium was collected for ELISA assays. In some experiments, cells were cultured in medium supplemented with 1 μM 7-cyclo (Sigma) for an additional time of 24 h, under shear stress. Static controls were carried out in the microfluidic system but without flow.\nEvaluation of the levels of vascular injury by specific markers. ELISA kits analyzed supernatants collected from the shear stress experiments for vWF and vWFpp (Gen-Probe GTI Diagnostic) and ADMA (Enzo Life Sciences), according to manufacturer's recommendations.\nTo evaluate the effects of 7-Cyclo in flow conditions, hESC-derived ECs were cultured in a poly(dimethylsiloxane) (PDMS) microfluidic system with cylindrical channels for 7 days at 20 dyne/cm2 (FIG. 5A). ECs were able to form a confluent monolayer in the entire inner surface of the channel after 48 h. At day 7, cells were exposed to EGM-2 medium supplemented with 1 μM of 7-Cyclo for 24 h, and finally analyzed at morphological, genetic and secretion levels. […] Importantly, hESC-derived ECs cultured under flow conditions in the presence of 7-Cyclo secrete higher levels of ADMA (2.5 fold) and vWFpp:vWF (1.6 fold) than without the drug, and significant higher levels of ADMA than HUAECs."}, "[4]": {"conditions": "flow 20 dyne/cm2, 1 μM for 24 h, versus static conditions"}, "[5]": {"conditions": "flow conditions, 1 μM for 24 h, ELISA"}}, "data": [{"smiles": "Nc1ncnc2c1c(-c1ccc(Oc3ccccc3)cc1)cn2C1CCCC1", "note": "[7-Cyclo, 7-cyclopentyl-5-(4-phenoxy)phenyl-7H-pyrrolo[2,3-d]pyrimidin-4-ylamine]", "values": [{"measurement": "tube formation", "setting": "[1]", "result": "inhibits"}, {"measurement": "inflammation, oxidative stress sensing, vascular modulation and vascular injury sensing genes", "setting": "[2]; mAEC at E12.5, 1 μM for 24 h, versus cells without treatment", "result": "statistically up-regulated"}, {"measurement": "effect on gene expression", "setting": "[2]; postnatal day 1 (p1) ECs, 1 μM for 24 h", "result": "no effect"}, {"measurement": "Differences (%) in cell viability (hESC-Derived ECs versus ACL cells)", "setting": "[3]", "result": 65.4, "unit": "%"}, {"measurement": "effect on vasculature of Xenopus embryos", "setting": "Xenopus embryos", "result": "interfere with angiogenic sprouting and disrupt blood vessel formation"}, {"measurement": "cell morphology", "setting": "hESC-derived ECs; flow 20 dyne/cm2, 1 μM for 24 h", "result": "significant alterations"}, {"measurement": "expression of DDAH1 and DDAH2", "setting": "hESC-derived ECs; [4]", "result": "statistically lower levels"}, {"measurement": "expression of inflammatory genes ICAM-1, E-selectin, HO-1 and eNOS", "setting": "hESC-derived ECs; [4]", "result": "statistically higher levels"}, {"measurement": "secreted ADMA versus without the drug", "setting": "hESC-derived ECs; [5]", "result": 2.5, "unit": "fold"}, {"measurement": "secreted vWFpp:vWF versus without the drug", "setting": "hESC-derived ECs; [5]", "result": 1.6, "unit": "fold"}]}]}
